What was measured:
human Edg-1(S1P1) [1] = biological target: T1, human Edg-1(S1P1) (Homo sapiens, UniProt P21453); experiment: Cell system binding test: inhibition of [3H]-S1P binding to Edg-1(S1P1) gene transferred HEK-293 cells; conditions: 10 μM compound, [3H]-S1P 10 nM, read-out: Cell system binding test % inhibition (10 μM)
T1 construct: expressed in transfected cells; host or cells: HEK-293

human Edg-1(S1P1) [2] = biological target: T1, human Edg-1(S1P1); experiment: Membrane system binding test: inhibition of [33P]-S1P binding to the membrane fraction of Edg-1(S1P1) gene transferred HEK-293 cells; conditions: 10 μM compound, [33P]-S1P 0.1 nM, membrane fraction of Edg-1(S1P1) gene transferred HEK-293 cells; for inhibition at 10 µM: read-out: Membrane system binding test % inhibition (10 μM)
Procedure: The membrane fraction was obtained by treating the cells with a solubilizing buffer (1 mM Tris/HCl, pH 7.2) for 10 minutes on ice, centrifuging the system (1000×g, 5 min) to remove insoluble fractions, and then centrifuging the system (40000×g, 30 min, 4° C.). The resulting membrane fraction was dissolved in a binding buffer (20 mM Tris-HCl, pH 7.4, 100 mM NaCl, 15 mM NaF, 2 mM deoxypyridoxine, 4 mg/mL fatty acid-free BSA), and then [^33P]-S1P (produced by ARC, end concentration 0.1 nM) and a DMSO solution of the test compound (end concentration of the compound: 10^−5 M, end concentration of DMSO: 0.1%) were added, followed by stirring the mixture and subsequently treating it for 1 hour at 30° C. Using a harvester, the membrane fraction was harvested onto unifilter-96GF/C filter (produced by Perkin-Elmer). Then, the filter with the membrane fraction was washed 4 times with the binding buffer, and the filter was dried. To the filter, 25 μL Microscint 0 (produced by Perkin-Elmer) was added, and the assay system was measured for radioactivity by means of Top Count NXT (Packard). Based on the radioactivity, the amount (A) of binding of [^33P]-S1P to the membrane fraction upon addition of the compound was calculated.
The same procedure was performed in the absence of the test compound, and the amount (B) of binding of [^33P]-S1P was calculated. Moreover, the same procedure was performed in the absence of the test compound with the use of HEK-293 cells, to which the Edg-1(S1P1) gene had not been transferred, and the background amount (C) of binding of [^33P]-S1P was calculated.
The Edg-1(S1P1) binding inhibition rate of the compound, calculated from the following equation, is shown in […]

T1 sequence (P21453 whole entry): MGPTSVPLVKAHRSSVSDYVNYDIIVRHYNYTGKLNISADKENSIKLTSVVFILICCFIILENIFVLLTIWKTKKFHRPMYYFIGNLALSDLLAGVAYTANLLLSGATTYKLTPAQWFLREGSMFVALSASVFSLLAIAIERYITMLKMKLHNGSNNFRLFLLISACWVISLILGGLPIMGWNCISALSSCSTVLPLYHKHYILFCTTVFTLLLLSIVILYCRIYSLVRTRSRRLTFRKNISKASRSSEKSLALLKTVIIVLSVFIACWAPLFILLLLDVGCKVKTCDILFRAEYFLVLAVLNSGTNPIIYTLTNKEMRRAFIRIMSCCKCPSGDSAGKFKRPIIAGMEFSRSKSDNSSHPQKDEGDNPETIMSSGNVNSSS

Compound	inhibition at 10 µM (human Edg-1(S1P1) [1]) [%]	inhibition at 10 µM (human Edg-1(S1P1) [2]) [%]	Membrane system binding test % inhibition (10 μM) (human Edg-1(S1P1) [2]) [%]
CCn1c(SCCc2ccncc2)nnc1[C@@H](C)NS(=O)(=O)c1ccc(Cl)cc1 [Compound 69]	89.5	92.7	–
CCn1c(SC2CCN(C)CC2)nnc1[C@@H](C)NS(=O)(=O)c1ccc(Cl)cc1 [Compound 70]	88.4	98	–
CCn1c(SCc2cccc(N(C)C)c2)nnc1[C@@H](C)NS(=O)(=O)c1ccc(Cl)cc1 [Compound 71]	89.7	104	–
CCn1c(SCCN2CCNC2=O)nnc1[C@@H](C)NS(=O)(=O)c1ccc(Cl)cc1 [Compound 73]	93.9	98.4	–
CCN(CCSc1nnc([C@@H](C)NS(=O)(=O)c2ccc(Cl)cc2)n1CC)c1ccccc1 [Compound 75]	92.7	99.4	–
CCn1c(SCCC2CCN(C)CC2)nnc1[C@@H](C)NS(=O)(=O)c1ccc(Cl)cc1 [Compound 76]	97.3	101	–
CCn1c(SCCc2ccc(N(C)C)cc2)nnc1[C@@H](C)NS(=O)(=O)c1ccc(Cl)cc1 [Compound 77]	89.4	96.4	–
CCn1c(SCCCN2CCCC2=O)nnc1[C@@H](C)NS(=O)(=O)c1ccc(Cl)cc1 [Compound 79]	84.7	94.9	–
CCn1c(SCCS(=O)(=O)c2ccccc2)nnc1[C@@H](C)NS(=O)(=O)c1ccc(Cl)cc1 [Compound 80]	86.2	87.5	–
CCn1c(SCC(N)=O)nnc1[C@@H](C)NS(=O)(=O)c1ccc(Cl)cc1 [Compound 83]	85.6	99.5	–
CCn1c(SCCn2ccnc2)nnc1[C@@H](C)NS(=O)(=O)c1ccc(Cl)cc1 [Compound 84]	87.9	100	–
CCn1c(SCCc2c[nH]c3ccccc23)nnc1[C@@H](C)NS(=O)(=O)c1ccc(Cl)cc1 [Compound 85]	90.4	106	–
C=CCSc1nnc(C(C)NS(=O)(=O)c2ccc(Cl)cc2)n1C (stereo not shown) [Compound 91]	72.9	47.4	–
C=CCSc1nnc([C@@H](C)NS(=O)(=O)c2ccc(Cl)cc2)n1C(C)C [Compound 97]	88.9	52.5	–
C=CCSc1nnc(CNS(=O)(=O)c2ccc(Cl)cc2)n1CC [Compound 104]	99.5	42.1	–
C=CCSc1nnc([C@@H](CC)NS(=O)(=O)c2ccc(Cl)cc2)n1C [Compound 106]	86.9	–	52.5

Compound	inhibition at 10 µM (human Edg-1(S1P1) [1]) [%]	inhibition at 10 µM (human Edg-1(S1P1) [2]) [%]	Membrane system binding test % inhibition (10 μM) (human Edg-1(S1P1) [2]) [%]
C=CCSc1nnc(C(CC)NS(=O)(=O)c2ccc(Cl)cc2)n1CC (stereo not shown) [Compound 109]	93	100	–
C=CCSc1nnc([C@@H](CC)NS(=O)(=O)c2ccc(Cl)cc2)n1CCC [Compound 113]	84	–	46.3
C=C(C)CSc1nnc(C(Cc2ccccc2)NS(=O)(=O)c2ccc(Cl)cc2)n1C (stereo not shown) [Compound 136]	103	94.7	–
Cn1c(SCc2ccc(Cl)c(Cl)c2)nnc1C(Cc1ccccc1)NS(=O)(=O)c1ccc(Cl)cc1 (stereo not shown) [Compound 137]	99	57.1	–
C=CCSc1nnc([C@@H](Cc2ccccc2)NS(=O)(=O)c2ccc(Cl)cc2)n1CC [Compound 138]	94.7	102	–
C=CCSc1nnc([C@@H](Cc2ccccc2)NS(=O)(=O)c2ccc(Cl)cc2)n1CCC [Compound 141]	94.8	79.5	–
C=CCSc1nnc([C@@H](Cc2ccccc2)NS(=O)(=O)c2ccc(Cl)cc2)n1C(C)C [Compound 143]	96	88.7	–
CCn1c(OC)nnc1[C@@H](C)NS(=O)(=O)c1ccc(Cl)cc1 [Compound 185]	87.4	86.6	–
CCOc1nnc([C@@H](C)NS(=O)(=O)c2ccc(Cl)cc2)n1CC [Compound 186]	89.3	94.5	–
CCn1c(OCCCCCCN(C)C)nnc1[C@@H](C)NS(=O)(=O)c1ccc(Cl)cc1 [Compound 189]	105	107	–
CCn1c(OCCCO)nnc1[C@@H](C)NS(=O)(=O)c1ccc(Cl)cc1 [Compound 191]	97.1	88.3	–
CCCCCCCCCCCCCCCCOc1nnc([C@@H](C)NS(=O)(=O)c2ccc(Cl)cc2)n1CC [Compound 192]	75.5	105	–
CCn1c(OC)nnc1[C@H](C)NS(=O)(=O)c1cccc(Cl)c1 [Compound 193]	108	64.4	–
CCn1c(OC)nnc1[C@H](C)NS(=O)(=O)c1ccc(NC(C)=O)cc1 [Compound 198]	92.5	46.7	–
CCn1c(OC)nnc1[C@@H](C)NS(=O)(=O)c1ccc(Br)cc1 [Compound 200]	97.4	93.3	–

Second part, the molecule after the results:

inhibition at 10 µM (human Edg-1(S1P1) [1]) [%]	inhibition at 10 µM (human Edg-1(S1P1) [2]) [%]	Membrane system binding test % inhibition (10 μM) (human Edg-1(S1P1) [2]) [%]	Compound
93	97.9	–	CCn1c(SCCCc2ccncc2)nnc1[C@@H](C)NS(=O)(=O)c1ccc(Cl)cc1 [Compound 68]
89.8	95.8	–	CCn1c(SCC2CCN(Cc3ccccc3)CC2)nnc1[C@@H](C)NS(=O)(=O)c1ccc(Cl)cc1 [Compound 72]
93.6	109	–	CCn1c(SCCNC(=O)c2ccncc2)nnc1[C@@H](C)NS(=O)(=O)c1ccc(Cl)cc1 [Compound 74]
83	96.5	–	CCn1c(SCCN2CCCC2=O)nnc1[C@@H](C)NS(=O)(=O)c1ccc(Cl)cc1 [Compound 78]
87.6	110	–	CCn1c(SCc2ccc([N+](=O)[O-])cc2)nnc1[C@@H](C)NS(=O)(=O)c1ccc(Cl)cc1 [Compound 81]
84.7	90.4	–	CCn1c(SCc2ccc(NC(C)=O)cc2)nnc1[C@@H](C)NS(=O)(=O)c1ccc(Cl)cc1 [Compound 82]
93.4	110	–	CCn1c(SCCC23CC4CC(CC(C4)C2)C3)nnc1[C@@H](C)NS(=O)(=O)c1ccc(Cl)cc1 [Compound 86]
82.7	84.7	–	CCn1c(SCCCC(C)=O)nnc1[C@@H](C)NS(=O)(=O)c1ccc(Cl)cc1 [Compound 87]
87.6	97.1	–	CCn1c(SCCC(C)(C)C)nnc1[C@@H](C)NS(=O)(=O)c1ccc(Cl)cc1 [Compound 88]
94	60.2	–	C=CCSc1nnc([C@@H](C)NS(=O)(=O)c2ccc(Cl)cc2)n1CCC [Compound 95]
93.6	83.8	–	C=CCSc1nnc([C@@H](CC)NS(=O)(=O)c2ccc(Cl)cc2)n1C(C)C [Compound 117]
88.8	84.8	–	C=CCSc1nnc([C@@H](Cc2ccccc2)NS(=O)(=O)c2ccc(Cl)cc2)n1C [Compound 134]
86.7	96.9	–	C=CCSc1nnc(C(Cc2ccccc2)NS(=O)(=O)c2ccc(Cl)cc2)n1C (stereo not shown) [Compound 135]
91	107	–	CCCSc1nnc([C@@H](Cc2ccccc2)NS(=O)(=O)c2ccc(Cl)cc2)n1CC [Compound 139]
67.5	72.9	–	C=CCSc1nnc(C(Cc2ccccc2)NS(=O)(=O)c2ccc(F)cc2)n1CC (stereo not shown) [Compound 169]
82.9	46.4	–	CCn1c(OCCN(C)C)nnc1[C@@H](C)NS(=O)(=O)c1ccc(Cl)cc1 [Compound 187]
82	46.3	–	CCn1c(OCCCN(C)C)nnc1[C@@H](C)NS(=O)(=O)c1ccc(Cl)cc1 [Compound 188]
91.1	41.3	–	CCn1c(OCCO)nnc1[C@@H](C)NS(=O)(=O)c1ccc(Cl)cc1 [Compound 190]
103	91.2	–	CCCOc1nnc([C@@H](C)NS(=O)(=O)c2ccc(OC)cc2)n1CC [Compound 195]
106	88.5	–	CCCOc1nnc([C@@H](C)NS(=O)(=O)c2ccc(C)cc2)n1CC [Compound 196]
93	54.9	–	CCn1c(OC)nnc1[C@@H](C)NS(=O)(=O)c1ccc(C(C)=O)cc1 [Compound 199]
92.6	45.3	–	CCn1c(OC)nnc1[C@H](C)NS(=O)(=O)c1ccc(C(C)(C)C)cc1 [Compound 201]
